The results in this text go back to patent US20100286128A1 (priority 2007, published 2010).

Structures are written as SMILES. Where a name gives a salt, the structure may show the parent alone. A value given as a limit tells only on which side of the number the result lay.

The assay deals with α7-subtype of nicotinic receptors (Rattus norvegicus, UniProt Q05941). The experiment in a line: biochemical. The class given is binding.
α7-subtype of nicotinic receptors, sequence (Q05941 23-502): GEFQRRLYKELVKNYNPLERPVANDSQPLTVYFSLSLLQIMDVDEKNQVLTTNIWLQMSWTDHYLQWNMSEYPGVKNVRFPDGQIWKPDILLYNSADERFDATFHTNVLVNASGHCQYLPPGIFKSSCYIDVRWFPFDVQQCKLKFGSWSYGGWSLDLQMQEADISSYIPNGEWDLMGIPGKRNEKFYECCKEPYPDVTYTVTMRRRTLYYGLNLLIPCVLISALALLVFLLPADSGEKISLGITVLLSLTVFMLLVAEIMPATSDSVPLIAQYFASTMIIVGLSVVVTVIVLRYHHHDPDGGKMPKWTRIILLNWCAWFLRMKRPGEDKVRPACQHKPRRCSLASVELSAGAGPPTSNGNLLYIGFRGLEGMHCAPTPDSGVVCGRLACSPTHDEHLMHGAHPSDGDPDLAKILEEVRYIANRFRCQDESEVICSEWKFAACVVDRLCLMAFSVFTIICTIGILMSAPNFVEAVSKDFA

As a reminder, the IC50 is the concentration needed to halve the response being measured. `c1csc(-c2cnc(N3CCN4CCC3CC4)nc2)c1` [Compound A1, 4-(5-Thiophen-2-yl-pyrimidin-2-yl)-1,4-diaza-bicyclo[3.2.2]nonane hydrochloric acid salt] displayed an IC50 of less than 0.1 µM.
